These results are taken from BindingDB's records for doi:10.1021/jm9805642 (Pharmacia and Upjohn, 1999).

For the experiment, the target named is Cytosol aminopeptidase (Sus scrofa) (UniProt P28839). Put plainly: Inhibition against Leucyl aminopeptidase from pig kidney.
Cytosol aminopeptidase (Sus scrofa), sequence (P28839 whole entry, looked up): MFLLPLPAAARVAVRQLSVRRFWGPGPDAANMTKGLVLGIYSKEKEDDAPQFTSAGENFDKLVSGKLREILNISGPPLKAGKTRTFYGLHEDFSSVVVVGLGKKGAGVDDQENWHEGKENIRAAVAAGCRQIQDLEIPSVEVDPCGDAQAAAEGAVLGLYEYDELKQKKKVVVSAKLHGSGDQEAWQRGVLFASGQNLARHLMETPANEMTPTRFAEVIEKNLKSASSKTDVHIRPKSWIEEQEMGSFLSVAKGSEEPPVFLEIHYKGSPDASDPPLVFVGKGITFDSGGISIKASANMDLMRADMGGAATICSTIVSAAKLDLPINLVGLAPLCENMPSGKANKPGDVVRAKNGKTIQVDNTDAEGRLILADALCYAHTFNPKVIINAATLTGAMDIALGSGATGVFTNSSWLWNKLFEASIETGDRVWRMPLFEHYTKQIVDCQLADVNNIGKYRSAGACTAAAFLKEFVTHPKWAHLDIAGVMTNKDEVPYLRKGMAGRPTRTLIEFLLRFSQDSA

For `C[C@H](NC(=O)[C@@H]1CCCN1C(=O)[C@@H]1CC(O)CN1C(=O)[C@@H](O)[C@H](N)Cc1ccccc1)C(N)=O` (stereo not given in full) [1-[1-(3-Amino-2-hydroxy-4-phenyl-butyryl)-4-hydroxy-pyrrolidine-2-carbonyl]-pyrrolidine-2-carboxylic acid (1-carbamoyl-ethyl)-amide], half-maximal inhibition (IC50) was put at 1.6 µM.
To `C[C@H](NC(=O)[C@@H]1CCCN1C(=O)C1CCCCC1C(=O)NO)C(N)=O` (stereo partly drawn) [(S)-1-(2-Hydroxycarbamoyl-cyclohexanecarbonyl)-pyrrolidine-2-carboxylic acid ((S)-1-carbamoyl-ethyl)-amide] belongs above 1000 µM.
Next, `C[C@H](NC(=O)[C@@H]1CCCN1C(=O)C1CCCC1S)C(N)=O` (stereo partly drawn) [(S)-1-(2-Mercapto-cyclopentanecarbonyl)-pyrrolidine-2-carboxylic acid ((S)-1-carbamoyl-ethyl)-amide]: above 1000 µM.
Consider `C[C@H](NC(=O)[C@@H]1CCCN1C(=O)[C@@H]1CCCN1C(=O)[C@@H](O)[C@H](N)Cc1ccccc1)C(N)=O` [(S)-1-[(S)-1-((2S,3R)-3-Amino-2-hydroxy-4-phenyl-butyryl)-pyrrolidine-2-carbonyl]-pyrrolidine-2-carboxylic acid ((S)-1-carbamoyl-ethyl)-amide], for which the IC50 turned out to be 0.3 µM.
`NC(=O)[C@@H]1CCCN1C(=O)[C@@H]1CCCN1C(=O)[C@@H](O)[C@H](N)Cc1ccccc1` [(S)-1-[(S)-1-((2S,3R)-3-Amino-2-hydroxy-4-phenyl-butyryl)-pyrrolidine-2-carbonyl]-pyrrolidine-2-carboxylic acid amide] yielded an IC50 of 2.5 µM.

One may read the IC50 as the concentration that gives 50% inhibition. A high value points to lower potency.
